Test results as given in US9181255B2, “Fused heteroaromatic pyrrolidinones as SYK inhibitors” (Takeda Pharmaceutical Company Limited, priority 2009, dated 2015).

Biological target: SYK (Homo sapiens, UniProt P43405)
Experiment: SYK inhibition assay: SYK-mediated phosphorylation of FAM-labeled substrate (Caliper microfluidic)
Format: biochemical
Settings: read-out: SYK Inhibition (pIC50) (converted)

Structure (SMILES) | IC50
CC(C)C[C@@H](Nc1nc(-c2cc(C#N)cs2)c2c(c1F)CNC2=O)C(N)=O [Example 117, (R)-2-(4-(4-Cyanothiophen-2-yl)-7-fluoro-3-oxo-2,3-dihydro-1H-pyrrolo[3,4-c]pyridin-6-ylamino)-4-methylpentanamide] | 12.6 nM
CC(C)C[C@@H](Nc1nc(-c2cnn(C)c2)c2c(c1F)CNC2=O)C(N)=O [Example 70, (R)-2-(7-Fluoro-4-(1-methyl-1H-pyrazol-4-yl)-3-oxo-2,3-dihydro-1H-pyrrolo[3,4-c]pyridin-6-ylamino)-4-methylpentanamide] | 1.58 nM
Cn1cc(-c2nc(N[C@@H]3CC(F)(F)C[C@@H]3N)c(F)c3c2C(=O)NC3)cn1 (relative stereo) [Example 66, 6-(cis-2-Amino-4,4-difluorocyclopentylamino)-7-fluoro-4-(1-methyl-1H-pyrazol-4-yl)-1H-pyrrolo[3,4-c]pyridin-3(2H)-one] | 501 nM
Cc1c(N[C@@H]2CCCC[C@@H]2N)nc(-c2cnn(C)c2)c2c1CNC2=O [Example 90, 6-((1R,2S)-2-Aminocyclohexylamino)-7-methyl-4-(1-methyl-1H-pyrazol-4-yl)-1H-pyrrolo[3,4-c]pyridin-3(2H)-one] | 10 nM
N[C@H]1CCCC[C@H]1Nc1nc(-c2coc3ccccc23)c2c(c1F)CNC2=O [Example 50, 6-((1R,2S)-2-Aminocyclohexylamino)-4-(benzofuran-3-yl)-7-fluoro-1H-pyrrolo[3,4-c]pyridin-3(2H)-one] | 2.51 nM
N[C@H]1CCCC[C@H]1Nc1nc2c(c(-c3cnc4ccccn34)n1)C(=O)NC2 [Example 20, 2-((1R,2S)-2-Aminocyclohexylamino)-4-(imidazo[1,2-a]pyridin-3-yl)-6,7-dihydro-5H-pyrrolo[3,4-d]pyrimidin-5-one] | 200 nM
